Assay results reported in ChEMBL document CHEMBL2177046, “New aminoimidazoles as β-secretase (BACE-1) inhibitors showing amyloid-β (Aβ) lowering in brain” (J Med Chem, 2012).

How the values were obtained:
[1] = physchem
[2] = in vitro; conditions: human, Caco-2
[3] = Dissociation constant, pKa of the compound by pressure-assisted capillary electrophoretic method; assay type: physicochemical
[4] = system: Plasma; assay: Free plasma concentration in C57BL/6 mouse at 100 umol/kg, po at […]; assay type: ADME, organism-based; conditions: in vivo
[5] = Ratio of free drug concentration in brain to free drug concentration in plasma in C57BL/6 mouse at 100 umol/kg, po at […]; assay type: ADME, organism-based; conditions: brain and plasma, read-out: K(p,uu,brain)
[6] = Plasma concentration in C57BL/6 mouse at 100 umol/kg, po at […]; assay type: ADME, organism-based
[7] = system: Brain; assay: Free drug concentration in C57BL/6 mouse brain at 100 umol/kg, po at […]; assay type: ADME, organism-based; conditions: in vivo
[8] = Ratio of free drug concentration in brain to free drug concentration in plasma in guinea pig; assay type: ADME, Cavia porcellus; conditions: brain and plasma, read-out: K(p,uu,brain)
[9] = Drug uptake in C57BL/6 mouse brain at 100 umol/kg, po at […]; assay type: ADME, organism-based; conditions: read-out: Drug uptake
[10] = Drug uptake in C57BL/6 mouse brain at 30 umol/kg, iv at […]; assay type: ADME, organism-based; conditions: read-out: Drug uptake
[11] = system: Brain; assay: Free drug concentration in C57BL/6 mouse brain at 30 umol/kg, iv at […]; assay type: ADME, organism-based; conditions: in vivo
[12] = Ratio of free drug concentration in brain to free drug concentration in plasma in C57BL/6 mouse at 30 umol/kg, iv at […]; assay type: ADME, organism-based; conditions: brain and plasma, read-out: K(p,uu,brain)
[13] = Plasma concentration in C57BL/6 mouse at 30 umol/kg, iv at […]; assay type: ADME, organism-based
[14] = system: Plasma; assay: Free plasma concentration in C57BL/6 mouse at 30 umol/kg, iv at […]; assay type: ADME, organism-based; conditions: in vivo
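Wherever logD is given: lipophilicity determined by reversed-phase HPLC.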

Row | Compound | logD [1] | Papp A→B at 10 µM [2] [×10⁻⁶ cm/s] | pKa [3] | also measured
1 | CC#Cc1cncc(-c2cccc(C3(c4cc(C)c(OC)c(C)c4)N=C(C)C(N)=N3)c2)c1 (configuration not stated) | 3.7 | 12 |  | 
2 | COc1c(C)cc([C@@]2(c3cccc(-c4cncnc4)c3)N=C(C)C(N)=N2)cc1C | 1.8 | 22 | 5.2 | Cp(f) [4]: 490 nM; Kp uu at […] [5]: 0.05; concentration at […] [6]: 4500 nM; Drug uptake(free) [7]: 19 nmol/L; Kp uu [8]: 0.16; concentration at […] [9]: 230 nM
3 | CC1=N[C@@](Cc2ccccc2)(c2cccc(-c3cncnc3)c2)N=C1N | 1.2 | 31 | 6 | 
4 | CC(C)C1=NC(c2ccccc2)(c2cccc(-c3cncnc3)c2)N=C1N (configuration not stated) | 2.4 | 30 | 5.2 | 
5 | COc1ccc(C2(c3cccc(-c4cncnc4)c3)N=C(C)C(N)=N2)cc1 (configuration not stated) | 1.1 | 21 | 5.2 | 
6 | COc1c(C)cc(C2(c3cccc(-c4cncnc4)c3)N=C(C)C(N)=N2)cc1C (configuration not stated) | 1.9 | 28 | 5.3 | 
7 | COc1cccc(-c2cccc(C3(C)N=C(C)C(N)=N3)c2)c1 (configuration not stated) | 2.2 | 34 | 6.5 | 
8 | CC#Cc1ccnc(-c2cc(C3(C4CC4)N=C(C)C(N)=N3)ccc2O)c1 (configuration not stated) | 2.9 | 19 |  | 
9 | COc1ccc(C2(c3cccc(-c4cncnc4)c3)N=C(N)C(C(C)C)=N2)cc1 (configuration not stated) | 2.4 | 30 | 5.3 | 
10 | COc1c(C)cc([C@]2(c3cccc(-c4cncnc4)c3)N=C(C)C(N)=N2)cc1C | 1.8 | 21 |  | 
11 | CC#Cc1cncc(-c2cc(C3(C4CC4)N=C(C)C(N)=N3)ccc2O)c1 (configuration not stated) | 1.2 | 2 | 5.9 | 
12 | COc1ccc(C2(c3cccc(-c4cncnc4)c3)N=C(C)C(N)=N2)cc1C (configuration not stated) | 1.7 | 19 |  | 
13 | COc1cccc(-c2cccc(C3(c4ccncc4)N=C(C)C(N)=N3)c2)c1 (configuration not stated) |  | 40 |  | 
14 | COc1ccc(C2(c3cccc(-c4cccnc4)c3)N=C(C)C(N)=N2)cc1 (configuration not stated) | 1.7 | 28 | 5.7 | concentration at […] [10]: 710 nM; Drug uptake(free) [11]: 54 nmol/L; Kp uu at […] [12]: 0.08; concentration at […] [13]: 11500 nM; Cp(f) [14]: 720 nM
15 | CC1(c2cccc(-c3cccnc3)c2)N=C(N)C(c2ccccc2)=N1 (configuration not stated) | 2.1 | 46 | 5.4 | 

Continued, in another order:

Row | logD [1] | Papp A→B at 10 µM [2] [×10⁻⁶ cm/s] | pKa [3] | Compound | also measured
16 | 1.8 |  |  | CC1=NC(c2ccccc2)(c2cccc(-c3cccnc3)c2)N=C1N (configuration not stated) | 
17 |  |  | 5.7 | COc1cccc(-c2cccc(C3(C4CCN(C(C)=O)CC4)N=C(C)C(N)=N3)c2)c1 (configuration not stated) | 
18 | 2 | 57 |  | CC1=NC(c2cccc(-c3cncc(Cl)c3)c2)(C2CC2)N=C1N (configuration not stated) | concentration at […] [10]: 180 nM; Drug uptake(free) [11]: 9 nmol/L; Kp uu at […] [12]: 0.16; concentration at […] [13]: 1200 nM; Cp(f) [14]: 60 nM
19 | 2 | 41 | 4.9 | CC1=NC(c2ccc(F)cc2)(c2cccc(-c3cccnc3)c2)N=C1N (configuration not stated) | 
20 | 0.2 | 30 | 6.7 | CC1=NC(C)(c2cccc(-c3cccnc3)c2)N=C1N (configuration not stated) | 
21 | 2.6 | 41 | 6.2 | CC1=NC(c2cccc(-c3cccnc3)c2)(C2CCCCC2)N=C1N (configuration not stated) | 
22 | 1.1 | 38 | 5.9 | CC(C)C1=NC(C)(c2cccc(-c3cccnc3)c2)N=C1N (configuration not stated) | 
23 | 2.5 | 22 | 6 | COc1cccc(-c2cccc(C3(C4CCOCC4)N=C(C)C(N)=N3)c2)c1 (configuration not stated) | 
24 | 2.3 | 27 | 5.8 | CC#Cc1cncc(-c2cccc(C3(C4CC4)N=C(C)C(N)=N3)c2)c1 (configuration not stated) | concentration at […] [10]: 980 nM; Drug uptake(free) [11]: 21 nmol/L; Kp uu at […] [12]: 0.07; concentration at […] [13]: 3700 nM; Cp(f) [14]: 310 nM
